Measurements from PMC6440584 (Eurosurveillance, 2019).

Assays:
[1] = molecular target: neuraminidase (NA) of influenza A(H3N2) virus A/YOKOHAMA/88/2019 (Influenza A virus, UniProt A0A193ACB1); format: biochemical
[2] = molecular target: neuraminidase (NA) of influenza A(H3N2) virus A/YOKOHAMA/87/2019 (Influenza A virus, UniProt A0A193ACB1); format: biochemical

With CCC(CC)[C@H](NC(C)=O)[C@@H]1[C@H](O)[C@@H](C(=O)O)C[C@H]1N=C(N)N [Peramivir, peramivir] the “WHO criteria (fold change of IC50 compared with reference IC50)” value [1] was 0.13 (NI) (key: NI: normal inhibition) and the “WHO criteria (fold change of IC50 compared with reference IC50)” value [2] was 0.16 (NI) (key: NI: normal inhibition).
